From patent US9913838B2, “Methods of treating cancer using compositions comprising perillyl alcohol derivative” (NEONC TECHNOLOGIES INC., priority 2010, dated 2018)
Like-named read-outs stand apart in the source and are kept apart here. Values belong to the compound of their own block, whether it stands above or below them.

What was measured:
[1] = system: subcutaneous U-87 gliomas; test: Nude mouse subcutaneous glioma model, local application; format: in vivo, nude mice; conditions: local application via Q-tip daily over 8 weeks; ranking in words
Method: Inhibition of tumor growth by butyryl-POH was studied in a nude mouse subcutaneous glioma model. Mice were injected with U-87 glioma cells (500,000 cells/injection) and allowed to form a palpable nodule over two weeks. Once palpable nodule was formed, the mice were treated with local application of various compounds as indicated in FIGS. 9A and 9B via a Q-tip (1 cc/application/day) over a period of 8 weeks.

[2] = system: 231-MGMT-2; test: Colony formation assay, MGMT-transfected 231-MGMT-2; format: cell-based, human; conditions: pre-treated with O6-BG for 60 minutes; 231-MGMT-2
Method: (§1) Depending on the cell line (and plating efficiency), 200-350 cells were seeded into each well of a 6-well plate. […] Thereafter, the drugs were removed, fresh growth medium was added, and the cells were kept in culture undisturbed for 12-16 days, during which time the surviving cells spawned colonies of descendants. Colonies (defined as groups of >50 cells) were visualized by staining for 4 hours with 1% methylene blue (in methanol), and then were counted.
(§2) In the case of O6-BG treatment, cells were pretreated with 10 μM O6-BG for one hour before addition of TMZ or TMZ-POH. After 24 hours, another 10 μM O6-BG was added to the medium. Another 24 hours later, drug-laced medium was removed, and fresh medium without drugs was added. Thereafter, cells remained undisturbed until staining with methylene blue.
(§3) MDA-MB-231 cells were co-transfected in 6-well plates with the use of Lipofectamine 2000 (Invitrogen, Carlsbad, Calif.) according to manufacturer's instructions. 2 μg pSV2MGMT (containing the human MGMT cDNA) was combined with 0.2 μg pSV2neo (containing the neomycin gene for selection of cells in G418). Both plasmids were provided by Bernd Kaina (Mainz, Germany). Individual clones of transfected cells were selected in medium containing 750 μg/mL G418 and propagated in 250 μg/mL G418. G418 was obtained as G418 disulfate salt from Sigma-Aldrich and dissolved in PBS at 75 mg/mL. Selection medium was removed from cells several days before experimental drug treatment.
(§4) To investigate the latter, we stably transfected MGMT-negative MDA-MB-231 cells with MGMT cDNA and isolated individual clones. […] Both clones were treated with increasing concentrations of TMZ-POH and TMZ and analyzed by CFA.

[3] = system: MCF7; test: Colony formation assay, MCF7; conditions: pre-treated with O6-BG for 60 minutes; MCF7
Method: as §1, §2
(§5) The cytotoxic potency of TMZ-POH, was analyzed by colony formation assay (CFA) in a variety of human breast cancer cell lines and compared to the cytotoxicity of TMZ. We used estrogen receptor positive cells MCF7 and T47D, the triple-negative lines MDA-MB-231, MDA-MB-468, and HCC-1937, and a brain-seeking variant of the 231 cell line, MDA-MB-231-br.

[4] = system: MDA-MB-231; test: cells
Method: as §1, §2, §5
Thus, we tested whether simply mixing the two compounds TMZ and POH could mimic the effects of the TMZ-POH conjugate. MDA-MB-231 cells were treated with the individual compounds (TMZ-POH, TMZ or POH) alone, or with an equimolar mix of TMZ plus POH, and cell survival was analyzed by CFA.

[5] = system: MGMT; test: Western blot of MGMT protein levels in MDA-MB-468 cells; format: cell-based, human; conditions: MDA-MB-468, 17 hours; in words
Method: In FIG. 21C, MDA-MB-468 cells were treated with the indicated concentrations of TMZ-POH, TMZ, or O6-BG for 17 hours before harvest of cellular lysates. vh.=cells treated with vehicle only.
(§6) Total cell lysates were analyzed by Western blot analysis as described in P. Pyrko et al. Downregulation of survivin expression and concomitant induction of apoptosis by celecoxib and its non-cyclooxygenase-2-inhibitory analog, dimethyl-celecoxib (DMC), in tumor cells in vitro and in vivo. Mol Cancer 5 (2006) 19. The primary antibodies were purchased from Cell Signaling Technology (Beverly, Mass.) or Santa Cruz Biotechnology, Inc. (Santa Cruz, Calif.) and used according to the manufacturers' recommendations. All immunoblots were repeated at least once to confirm the results.
The major cytotoxic DNA lesion set by TMZ is methylation of O6-guanine, and it is well known that removal of this methyl group by MGMT leads to rapid degradation of the DNA repair protein.

[6] = system: MDA-MB-468; test: Colony formation assay, MDA-MB-468; conditions: pre-treated with O6-BG for 60 minutes; MDA-MB-468
Method: as §1, §2, §5

[7] = system: 231-MGMT-1; test: Colony formation assay, MGMT-transfected 231-MGMT-1; format: cell-based, human; conditions: pre-treated with O6-BG for 60 minutes; 231-MGMT-1
Method: as §1, §2, §3, §4

[8] = system: TMZ-resistant tumors; conditions: O6-BG and TMZ, cited from earlier work
[9] = system: TMZ resistant (U251TR) U251 cells; test: Colony forming assay, TMZ resistant U251TR cells; format: cell-based, human; conditions: in words
Method: (§7) Colony forming assays were carried out after cells were treated with TMZ alone, POH alone, and the TMZ-POH conjugate. […] Cancer Lett. 2011 Mar. 28; 302(2):100-8.

[10] = system: USC-02 glioma cancer stem cells; test: MTT cytotoxicity assay, USC-02 glioma cancer stem cells; format: cell-based; conditions: TMZ 0-400 uM, POH 0-2 mM, in words
Source text: Cancer Lett. 2011 Mar. 28; 302(2):100-8.

[11] = system: TMZ sensitive (U251) cells; test: Colony forming assay, TMZ sensitive U251 cells; format: cell-based, human; conditions: in words
Method: as §7

[12] = system: γ-H2AX, activated caspase 7 and cleaved PARP; test: DNA damage and cell death marker analysis in MDA-MB-231 cells (Western blot); format: cell-based, human; conditions: MDA-MB-231, 20 μM, after 5 days of treatment; in words
Method: FIGS. 25A-25B show DNA damage and cell death marker analysis, where MDA-MB-231 cells were used for Western blot analysis of expression levels for markers of DNA damage (γ-H2AX) and cell death (activated caspase 7 and cleaved PARP). In FIG. 25A, cells were treated with 15 μM TMZ-POH and harvested every 24 hours up to 6 days; control cells remained untreated, or received vehicle (vh.) only. In FIG. 25B, cells were treated with 20 μM of either TMZ-POH, TMZ, or POH individually, or with 20 μM TMZ combined with 20 μM POH (TMZ+POH) and harvested after 24 hours or 5 days; control cells remained untreated, or received vehicle (vh.) only. In the case of caspase 7, only the activated (cleaved) form is shown (cl. C-7).
as §6
It is known that GBM cells treated with physiological concentrations of TMZ (<100 μM) in vitro can survive for several (5-7) days seemingly unaffected before substantial cell death becomes apparent. We observed a similar phenotype when breast cancer cell lines were treated with TMZ-POH, i.e., cell cultures only began to deteriorate approximately a week after the onset of drug treatment. In order to characterize TMZ-POH-induced cell death in greater detail, we treated MDA-MB-231 cells with 15 μM of the drug and collected cell lysates daily over the course of 6 days. The lysates were analyzed by Western blot for the presence of two apoptosis markers, cleaved (i.e. activated) caspase 7 and cleaved PARP-1 (poly ADP-ribose polymerase-1), along with the DNA damage marker γ-H2AX.
As shown in FIGS. 20A-20B above, an equimolar combination of TMZ+POH was unable to achieve the same potency in blocking colony survival as the TMZ-POH conjugate. […] We treated cells with the same concentration (20 μM) of TMZ-POH, TMZ, POH, or TMZ combined with POH (TMZ+POH), and analyzed the induction of γ-H2AX, activated caspase 7, and cleaved PARP. […] Thus, the results from the cell survival assay (FIGS. 20A-20B) correlated closely with the effects of these compounds on DNA damage and apoptosis markers (FIG. 25B), and in all cases TMZ-POH clearly generated the strongest anticancer impact.

[13] = system: U251 human glioma cells; test: MTT cytotoxicity assay, U251 glioma cells; conditions: for cytotoxicity (MTT assay): U251, result in words
Source text: (§8) In vitro efficacy of the present composition can be determined using methods well known in the art. For example, the cytoxicity of the present monoterpene (or sesquiterpene) and/or the therapeutic agents may be studied by MTT [3-(4,5-dimethylthiazol-2-yl)-2,5-diphenyl tetrazolium bromide] cytotoxicity assay. MTT assay is based on the principle of uptake of MTT, a tetrazolium salt, by metabolically active cells where it is metabolized into a blue colored formazon product, which can be read spectrometrically. J. of Immunological Methods 65: 55 63, 1983. The cytoxicity of the present monoterpene (or sesquiterpene) derivative and/or the therapeutic agents may be studied by colony formation assay. Functional assays for inhibition of VEGF secretion and IL-8 secretion may be performed via ELISA. Cell cycle block by the present monoterpene (or sesquiterpene) derivative and/or the therapeutic agents may be studied by standard propidium iodide (PI) staining and flow cytometry. Invasion inhibition may be studied by Boyden chambers. In this assay a layer of reconstituted basement membrane, Matrigel, is coated onto chemotaxis filters and acts as a barrier to the migration of cells in the Boyden chambers. Only cells with invasive capacity can cross the Matrigel barrier. Other assays include, but are not limited to cell viability assays, apoptosis assays, and morphological assays.
(§9) First cytotoxicity assays were carried out after cells were treated with dimethyl-celecoxib (DMC) alone.
(§10) Then U87, A172 and U251 cells were treated with dimethyl celecoxib bisPOH carbamate (POH−DMC) (e.g., synthesized by the method in Example 1), and the MTT cytotoxicity assays performed (FIG. 2).
(§11) First cytotoxicity assays were carried out after cells were treated with temozolomide (TMZ) alone, the standard alkylating agent used in the treatment of malignant gliomas.
(§12) Then TMZ-resistant glioma cell lines U87, A172 and U251 cells were treated with TMZ-POH (e.g., synthesized by the method in Example 3).
(§13) To compare the cytotoxicity of Rolipram POH Carbamate (POH-Rolipram) (e.g., synthesized by the method in Example 5) with rolipram, […] inducing differentiation and apoptosis in glioma cells, A172, U87, U251 and LN229 human glioma cells were treated with either POH-Rolipram or rolipram for 48 hours.
MTT cytotoxicity assays were carried out after cells were treated with the TMZ-POH conjugate. The MTT cytotoxicity assays were carried out as described in Chen T C, et al. Green tea epigallocatechin gallate enhances therapeutic efficacy of temozolomide in orthotopic mouse glioblastoma models. Cancer Lett. 2011 Mar. 28; 302(2):100-8.

[14] = system: A172 human glioma cells; test: MTT cytotoxicity assay, A172 glioma cells; conditions: for cytotoxicity (MTT assay): A172, result in words
Source text: as §8, §9, §10, §11, §12, §13

[15] = system: U87 human glioma cells; test: MTT cytotoxicity assay, U87 glioma cells; conditions: for cytotoxicity (MTT assay): U87, result in words
Source text: as §8, §9, §10, §11, §12, §13

[16] = system: LN229 human glioma cells; test: cells
Source text: as §8, §13

- IC50 ([4]; Homo sapiens, MDA-MB-231, 48 h, read-out: IC50 (concentration required to decrease colony formation by 50%)): ~700 µM
SMILES: C=C(C)[C@@H]1CC=C(CO)CC1 [POH, Perillyl alcohol]
- cytotoxicity (colony forming assay) [9]: demonstrated cytotoxicity
- cytotoxicity (MTT assay) [10]: demonstrated cytotoxicity
- concentrations required in order to become cytotoxic [4]: above 100 μM
- cytotoxicity (colony forming assay) [11]: demonstrated cytotoxicity
- induction of γ-H2AX, activated caspase 7, and cleaved PARP [12]: inactive

- IC50 ([16]; LN229 cells, 48 hours): 100 µM
SMILES: C=C(C)C1CC=C(COC(=O)N2CC(c3ccc(OC)c(OC4CCCC4)c3)CC2=O)CC1 (centres unmarked) [POH-rolipram, 4-(3-cyclopentyloxy-4-methoxyphenyl)-2-oxo-pyrrolidine-1-carboxylic acid 4-isopropenyl cyclohex-1-enylmethyl ester]
- cytotoxicity (MTT assay) [13]: substantially higher kill rates compared to rolipram alone
- IC50 ([13]; U251 cells, 48 hours): 50 µM
- cytoxicity ([13]; U251 cells, at 100 uM): ~100%
- cytotoxicity (MTT assay) [14]: substantially higher kill rates compared to rolipram alone
- IC50 ([14]; A-172 cells, 48 hours): 50 µM
- cytotoxicity (MTT assay) [15]: substantially higher kill rates compared to rolipram alone
- IC50 ([15]; U-87 cells, 48 hours): 180 µM
- cytotoxicity (MTT assay) [16]: substantially higher kill rates compared to rolipram alone

- IC50 ([16]; Homo sapiens, LN-229, 48 h): > 100 µM
SMILES: COc1ccc(C2CNC(=O)C2)cc1OC1CCCC1 (centres unmarked) [rolipram, reference compound]
- IC50 ([13]; Homo sapiens, U-251, 48 h): 170 µM
- plateau cytotoxicity ([13]; U251 cells): 60%
- IC50 ([14]; Homo sapiens, A 172, 48 h): ~1000 µM
- IC50 ([15]; Homo sapiens, U-87 MG, 48 h): > 1000 µM

Further lines, the compound ahead of its results:

SMILES: C=C(C)C1CC=C(COC(=O)CCC)CC1 (centres unmarked) [Butyryl-POH]
- inhibition of tumor growth [1]: greatest inhibition of tumor growth

SMILES: Nc1nc(OCc2ccccc2)c2nc[nH]c2n1 [O6-BG, O6-benzylguanine, reference compound]
- effect of O6-BG on toxicity of TMZ-POH and TMZ [2]: greatly enhanced toxicity
- effect of O6-BG on cytotoxic outcome of TMZ-POH and TMZ treatment [3]: increased the cytotoxic outcome
- effect of O6-BG on survival of cells treated with TMZ-POH or TMZ ([4]; pre-treated with O6-BG for 60 minutes, MDA-MB-231): had no effect
- MGMT protein levels [5]: strongly decreases MGMT protein levels
- effect of O6-BG on cytotoxic outcome of TMZ-POH and TMZ treatment [6]: increased the cytotoxic outcome
- effect of O6-BG on toxicity of TMZ-POH and TMZ [7]: greatly enhanced toxicity
- fraction of patients with restored TMZ-sensitivity ([8]; patients with GBM, no significant effect): 3%
- fraction of patients with restored TMZ-sensitivity ([8]; patients with anaplastic glioma): 16%

SMILES: C=C(C)C1CC=C(COC(=O)N(C(=O)OCC2=CCC(C(=C)C)CC2)S(=O)(=O)c2ccc(-n3nc(C(F)(F)F)cc3-c3cc(C)ccc3C)cc2)CC1 (centres unmarked) [POH−DMC]
- cytotoxicity (MTT assay) [13]: much better cytotoxicity than DMC alone
- cytotoxicity (MTT assay) [14]: much better cytotoxicity than DMC alone
- cytotoxicity (MTT assay) [15]: much better cytotoxicity than DMC alone
